In patent publication US20180028681A1, “COMBINATION THERAPY USING A CD19-ADC AND VINCRISTINE” (SEATTLE GENETICS, INC., priority 2015, published 2018):

These molecules were tested on ALL patient donor 06343 xenograft (assay: Disease burden (blast cells) in bone marrow, patient-derived ALL xenograft donor 06343). Details: NOD-scid IL2Rγ null mice, dosed at 38% blasts in sentinels, bone marrow counts day 14 post-dose.
Type: in vivo, mouse
Text: Establishment of patient-derived xenografts: NOD-scid IL2Rγ null mice were used as hosts for patient-derived xenografts. Twenty-four hours prior to cell implant, mice received 1.0 Gy irradiation using a Radsource 2000 irradiator (Radsource technologies, Suwanee, Ga.). Frozen bone marrow isolates of mononuclear cells from patients with acute lymphoblastic leukemia were obtained from […] (Alameda, Calif.). Cells were thawed in a warm water bath. After thaw, RPMI-1640 media was slowly added to the bone marrow isolate suspension. The cells were washed with PBS and centrifuged to remove DMSO in freezing media. After centrifugation, the cells were suspended in PBS. For, implantation, 3.6×10^6 cells were injected into the tail vein of female NOD-scid IL2Rγ null mice designated as donor, or passage 0 mice. Approximately 7 weeks after implant, mice were euthanized. Bone marrow and spleen were collected using sterile technique. Spleens were mechanically disrupted using a sterile syringe end and mesh filter. Connective tissues from spleens were filtered out using 40um filters. Splenocytes and bone marrow cells were treated with red blood cell buffer lysis (BD lysis buffer, BD biosciences, San Jose, Calif.) for 15 minutes at room temperature. A sample of the cells was utilized for confirmation of engraftment. The percentage of blast cells was determined by the number of CD45 FITC, CD19 PE-Cy.5 (BD Biosciences, San Jose, Calif.) CD10 APC (Biolegend, San Diego, Calif.) triple positive cells via flow cytometry (FACScalibur, BD Biosciences, San Jose, Calif.). The majority of the cells (passage 1) were placed into freezing media (90% Heat inactivated fetal bovine serum and 10% DMSO). Subsequent xenograft experiments utilized passage 1 cells. Cells were implanted in the same manner done for donor mice (passage 0 mice). Starting 14-21 days post implant, 2-3 sentinel mice were euthanized to determine the percentage blast cells in the bone marrow. Once the percentage of blast cells was at 25-50% of the bone marrow mononuclear cells mice were randomly placed into treatment groups. SGN-CD19A and non-specific ADC (also called h00-1269) were administered as a single intraperitoneal injection at 1.0, 3.0, or 10.0 mg/kg dose. Cyclophosphamide at 15 or 30 mg/kg (Baxter, Deefield, Ill.), Vincristine at 0.188 or 0.375 mg/kg (Hospira, Lake Forest, Ill.), and Doxorubicin at 1.24 or 2.475 mg/kg (Pfizer, NY, NY) were combined and administered as a single dose via intravenous injection into the lateral tail vein. Dexamethasone at 7.5 or 15 mg/kg (APP Pharmaceuticals, Schaumberg, Ill.) was given daily via intraperitoneal injection for five days. At pre-determined times post treatment, mice were euthanized for collection of bone marrow and determination of blast cell percentage via flow cytometry.
The response of human patient-derived ALL cells to single agent SGN-CD19A or CVAD was determined in mouse xenograft models. Bone marrow isolates from patients with ALL (donor 06343 and donor 90811) were used to establish xenografts in NOD-scid IL2Rgamma^null mice. After engraftment, patient-derived bone marrow cells were frozen and are referred to as passage 1 cells. Passage 1 cells were implanted into mice and assessed for presence of blast cells (CD45/CD10/CD19 positive cells). After blast cells were between 25-50% of the bone marrow, mice were placed in treatment groups (n=3 mice per time point). Mice were given either 1, 3, or 10 mg/kg of SGN-CD19A or 10 mg/kg of a non-specific ADC conjugated to MMAF (also called h00-1269). A maximum tolerated dose (MTD) of CVAD had previously been determined in the same mouse strain. Mice were given either CVAD at the MTD or at 50% of the MTD.
The response of human patient-derived ALL cells to the combination of SGN-CD19A and CVAD was also determined in the mouse xenograft model. Patient samples were engrafted as described above.

Molecule | Disease Burden in Bone Marrow, CD45/10% Mean [%]
C[C@@H]1C[C@H]2[C@@H]3CCC4=CC(=O)C=C[C@]4(C)[C@@]3(F)[C@@H](O)C[C@]2(C)[C@@]1(O)C(=O)CO [Dexamethasone] | 82.5
CC[C@]1(O)C[C@H]2CN(CCc3c([nH]c4ccccc34)[C@@](C(=O)OC)(c3cc4c(cc3OC)N(C=O)[C@H]3[C@@](O)(C(=O)OC)[C@H](OC(C)=O)[C@]5(CC)C=CCN6CC[C@]43[C@@H]65)C2)C1 [Vincristine] | 69.1
O=P1(N(CCCl)CCCl)NCCCO1 (stereo not drawn) [Cyclophosphamide] | 90
COc1cccc2c1C(=O)c1c(O)c3c(c(O)c1C2=O)C[C@@](O)(C(=O)CO)C[C@@H]3O[C@H]1C[C@H](N)[C@H](O)[C@H](C)O1 [Doxorubicin] | 69.2
SGN-CD19A: CD19-directed antibody-drug conjugate: humanized antibody hBU12, maleimidocaproyl linker, monomethyl auristatin F (MMAF); average four drugs per antibody (conjugate) VL: EIVLTQSPATLSLSPGERATLSCSASSSVSYMHWYQQKPGQAPRLLIYDTSKLASGIPARFSGSGSGTDFTLTISSLEPEDVAVYYCFQGSVYPFTFGQGTKLEIKR VH: QVQLQESGPGLVKPSQTLSLTCTVSGGSISTSGMGVGWIRQHPGKGLEWIGHIWWDDDKRYNPALKSRVTISVDTSKNQFSLKLSSVTAADTAVYYCARMELWSYYFDYWGQGTLVTVSS | 92.5

Same assay, conditions: SGN-CD19A 1, 3 or 10 mg/kg, CVAD at MTD or 50% of MTD, FIGS. 2A, 2C

Molecule | single agent dose response, blast cells in the bone marrow
SGN-CD19A: CD19-directed antibody-drug conjugate: humanized antibody hBU12, maleimidocaproyl linker, monomethyl auristatin F (MMAF); average four drugs per antibody (conjugate) VL: EIVLTQSPATLSLSPGERATLSCSASSSVSYMHWYQQKPGQAPRLLIYDTSKLASGIPARFSGSGSGTDFTLTISSLEPEDVAVYYCFQGSVYPFTFGQGTKLEIKR VH: QVQLQESGPGLVKPSQTLSLTCTVSGGSISTSGMGVGWIRQHPGKGLEWIGHIWWDDDKRYNPALKSRVTISVDTSKNQFSLKLSSVTAADTAVYYCARMELWSYYFDYWGQGTLVTVSS | decreasing amounts of blast cells in the bone marrow
